Results reported in PMC8401933 (Molecules, 2021).

What was measured:
FLT3(D835H) = target: T1, FLT3(D835H) (Homo sapiens, UniProt P36888, D835H); experiment: KINOMEscan binding; settings: read-out: Percent Control
T1 construct: purchased Eurofins DiscoverX KINOMEscan

FLT3(ITD) = experiment: KINOMEscan binding; design: species or system human; settings: 10 μM
LTK = target: T2, LTK (Homo sapiens, UniProt P29376); experiment: KINOMEscan binding; settings: read-out: Percent Control
T2 construct: purchased Eurofins DiscoverX KINOMEscan

CDK4-cyclinD3 = target: T3, CDK4-cyclinD3 (Homo sapiens, UniProt P11802); experiment: KINOMEscan binding; settings: read-out: Percent Control
T3 construct: purchased Eurofins DiscoverX KINOMEscan

TIE2 = target: T4, TIE2 (Homo sapiens, UniProt Q02763); experiment: KINOMEscan binding; settings: read-out: Percent Control
T4 construct: purchased Eurofins DiscoverX KINOMEscan

DLK = target: T5, DLK (Homo sapiens, UniProt Q12852); experiment: KINOMEscan binding; settings: read-out: Percent Control
T5 construct: purchased Eurofins DiscoverX KINOMEscan

DCAMKL3 = target: T6, DCAMKL3 (Homo sapiens, UniProt Q9C098); experiment: KINOMEscan binding; settings: read-out: Percent Control
T6 construct: purchased Eurofins DiscoverX KINOMEscan
T6 sequence (Q9C098 whole entry): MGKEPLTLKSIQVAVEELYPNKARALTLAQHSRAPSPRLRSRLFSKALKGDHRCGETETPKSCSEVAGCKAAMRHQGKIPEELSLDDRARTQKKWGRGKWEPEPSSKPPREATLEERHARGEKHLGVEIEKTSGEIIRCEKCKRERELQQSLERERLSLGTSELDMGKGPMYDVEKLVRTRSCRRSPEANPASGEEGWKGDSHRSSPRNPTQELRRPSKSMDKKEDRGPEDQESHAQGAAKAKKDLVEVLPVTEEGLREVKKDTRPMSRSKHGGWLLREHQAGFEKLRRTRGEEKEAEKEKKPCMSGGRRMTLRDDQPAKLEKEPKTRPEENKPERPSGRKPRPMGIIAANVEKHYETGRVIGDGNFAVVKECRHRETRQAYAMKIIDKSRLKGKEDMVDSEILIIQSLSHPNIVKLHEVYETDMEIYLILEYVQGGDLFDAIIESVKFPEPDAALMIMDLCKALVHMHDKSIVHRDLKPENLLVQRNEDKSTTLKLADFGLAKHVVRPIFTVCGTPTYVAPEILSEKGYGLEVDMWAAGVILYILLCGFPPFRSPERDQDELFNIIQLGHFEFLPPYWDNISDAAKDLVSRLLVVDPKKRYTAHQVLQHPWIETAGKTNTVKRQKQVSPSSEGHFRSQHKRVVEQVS

MYLK = target: T7, MYLK (Homo sapiens, UniProt Q15746); experiment: KINOMEscan binding; settings: read-out: Percent Control
T7 construct: purchased Eurofins DiscoverX KINOMEscan

EPHB6 = target: T8, EPHB6 (Homo sapiens, UniProt O15197); experiment: KINOMEscan binding; settings: read-out: Percent Control
T8 construct: purchased Eurofins DiscoverX KINOMEscan
T8 sequence (O15197 32-1021): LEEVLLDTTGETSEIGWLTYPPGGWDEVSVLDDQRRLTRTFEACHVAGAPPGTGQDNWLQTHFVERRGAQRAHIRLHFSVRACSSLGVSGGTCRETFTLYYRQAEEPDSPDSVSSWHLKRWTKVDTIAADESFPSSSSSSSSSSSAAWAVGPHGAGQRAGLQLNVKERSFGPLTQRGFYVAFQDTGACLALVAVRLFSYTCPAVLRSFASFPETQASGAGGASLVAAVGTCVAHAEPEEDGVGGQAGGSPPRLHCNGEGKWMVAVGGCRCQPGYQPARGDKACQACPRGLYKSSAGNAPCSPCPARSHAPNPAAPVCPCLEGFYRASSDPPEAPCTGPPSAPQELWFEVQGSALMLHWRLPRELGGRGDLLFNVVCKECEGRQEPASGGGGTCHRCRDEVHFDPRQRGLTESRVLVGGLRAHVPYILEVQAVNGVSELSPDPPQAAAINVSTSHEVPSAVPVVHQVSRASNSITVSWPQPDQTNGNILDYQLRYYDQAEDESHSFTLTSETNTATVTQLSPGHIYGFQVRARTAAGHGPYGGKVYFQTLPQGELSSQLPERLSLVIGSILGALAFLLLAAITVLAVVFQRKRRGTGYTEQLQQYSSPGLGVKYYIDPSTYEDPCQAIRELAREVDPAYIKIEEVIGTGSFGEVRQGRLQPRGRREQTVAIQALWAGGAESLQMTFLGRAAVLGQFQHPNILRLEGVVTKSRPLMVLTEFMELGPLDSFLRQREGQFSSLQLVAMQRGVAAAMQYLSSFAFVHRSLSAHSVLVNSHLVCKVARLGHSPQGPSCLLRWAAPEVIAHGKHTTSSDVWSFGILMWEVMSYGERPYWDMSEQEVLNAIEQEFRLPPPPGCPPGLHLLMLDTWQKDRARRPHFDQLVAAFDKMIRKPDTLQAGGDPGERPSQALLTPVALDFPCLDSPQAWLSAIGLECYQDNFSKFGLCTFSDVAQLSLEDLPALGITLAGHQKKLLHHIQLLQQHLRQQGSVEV

SIK2 = target: T9, SIK2 (Homo sapiens, UniProt Q9H0K1); experiment: KINOMEscan binding; settings: read-out: Percent Control
T9 construct: purchased Eurofins DiscoverX KINOMEscan

FER = target: T10, FER (Homo sapiens, UniProt P16591); experiment: KINOMEscan binding; settings: read-out: Percent Control
T10 construct: purchased Eurofins DiscoverX KINOMEscan

HPK1 = target: T11, HPK1 (Homo sapiens, UniProt Q92918); experiment: KINOMEscan binding; settings: read-out: Percent Control
T11 construct: purchased Eurofins DiscoverX KINOMEscan
T11 sequence (Q92918 whole entry): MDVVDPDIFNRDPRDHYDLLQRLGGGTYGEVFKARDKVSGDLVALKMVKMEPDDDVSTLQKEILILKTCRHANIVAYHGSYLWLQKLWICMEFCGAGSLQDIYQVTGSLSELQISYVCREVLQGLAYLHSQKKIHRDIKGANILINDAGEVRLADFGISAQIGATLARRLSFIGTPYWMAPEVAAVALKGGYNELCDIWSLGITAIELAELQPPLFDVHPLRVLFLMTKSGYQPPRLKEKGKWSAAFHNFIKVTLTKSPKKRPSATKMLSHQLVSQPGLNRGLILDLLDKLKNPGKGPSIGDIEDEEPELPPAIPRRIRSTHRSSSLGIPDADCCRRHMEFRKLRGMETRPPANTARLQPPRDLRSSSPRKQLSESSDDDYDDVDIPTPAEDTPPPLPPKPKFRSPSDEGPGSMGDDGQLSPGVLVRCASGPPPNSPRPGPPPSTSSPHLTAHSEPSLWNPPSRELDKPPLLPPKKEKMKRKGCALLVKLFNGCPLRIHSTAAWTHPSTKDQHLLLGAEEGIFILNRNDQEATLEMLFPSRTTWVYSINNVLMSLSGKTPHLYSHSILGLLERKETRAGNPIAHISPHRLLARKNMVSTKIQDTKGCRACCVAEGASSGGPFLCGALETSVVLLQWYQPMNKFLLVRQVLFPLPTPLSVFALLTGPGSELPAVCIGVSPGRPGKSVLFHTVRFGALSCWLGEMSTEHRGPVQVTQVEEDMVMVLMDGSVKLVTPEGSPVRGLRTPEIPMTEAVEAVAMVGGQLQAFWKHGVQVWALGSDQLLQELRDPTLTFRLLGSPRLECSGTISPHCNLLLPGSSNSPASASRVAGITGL

HASPIN = target: T12, HASPIN (Homo sapiens, UniProt Q8TF76); experiment: KINOMEscan binding; settings: read-out: Percent Control
T12 construct: purchased Eurofins DiscoverX KINOMEscan

MEK3 = target: T13, MEK3 (Homo sapiens, UniProt P46734); experiment: KINOMEscan binding; settings: read-out: Percent Control
T13 construct: purchased Eurofins DiscoverX KINOMEscan
T13 sequence (P46734 whole entry): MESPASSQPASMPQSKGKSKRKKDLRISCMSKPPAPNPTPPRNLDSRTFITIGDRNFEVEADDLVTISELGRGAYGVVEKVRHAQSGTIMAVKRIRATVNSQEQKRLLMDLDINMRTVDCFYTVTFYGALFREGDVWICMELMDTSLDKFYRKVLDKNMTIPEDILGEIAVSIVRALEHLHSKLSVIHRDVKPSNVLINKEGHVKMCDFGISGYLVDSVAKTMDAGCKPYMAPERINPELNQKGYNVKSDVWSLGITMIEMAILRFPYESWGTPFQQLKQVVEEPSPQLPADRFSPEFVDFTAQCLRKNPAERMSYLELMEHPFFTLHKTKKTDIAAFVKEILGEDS

MAP3K3 = target: T14, MAP3K3 (Homo sapiens, UniProt Q99759); experiment: KINOMEscan binding; settings: read-out: Percent Control
T14 construct: purchased Eurofins DiscoverX KINOMEscan

TAOK2 = target: T15, TAOK2 (Homo sapiens, UniProt Q9UL54); experiment: KINOMEscan binding; settings: read-out: Percent Control
T15 construct: purchased Eurofins DiscoverX KINOMEscan

NIK = target: T16, NIK (Homo sapiens, UniProt Q99558); experiment: KINOMEscan binding; settings: read-out: Percent Control
T16 construct: purchased Eurofins DiscoverX KINOMEscan

PIK3CA(Q546K) = target: T17, PIK3CA(Q546K) (Homo sapiens, UniProt P42336, Q546K); experiment: KINOMEscan binding; settings: read-out: Percent Control
T17 construct: purchased Eurofins DiscoverX KINOMEscan

STK35 = target: T18, STK35 (Homo sapiens, UniProt Q8TDR2); experiment: KINOMEscan binding; settings: read-out: Percent Control
T18 construct: purchased Eurofins DiscoverX KINOMEscan

DAPK1 = target: T19, DAPK1 (Homo sapiens, UniProt P53355); experiment: KINOMEscan binding; settings: read-out: Percent Control
T19 construct: purchased Eurofins DiscoverX KINOMEscan
T19 sequence (P53355 whole entry): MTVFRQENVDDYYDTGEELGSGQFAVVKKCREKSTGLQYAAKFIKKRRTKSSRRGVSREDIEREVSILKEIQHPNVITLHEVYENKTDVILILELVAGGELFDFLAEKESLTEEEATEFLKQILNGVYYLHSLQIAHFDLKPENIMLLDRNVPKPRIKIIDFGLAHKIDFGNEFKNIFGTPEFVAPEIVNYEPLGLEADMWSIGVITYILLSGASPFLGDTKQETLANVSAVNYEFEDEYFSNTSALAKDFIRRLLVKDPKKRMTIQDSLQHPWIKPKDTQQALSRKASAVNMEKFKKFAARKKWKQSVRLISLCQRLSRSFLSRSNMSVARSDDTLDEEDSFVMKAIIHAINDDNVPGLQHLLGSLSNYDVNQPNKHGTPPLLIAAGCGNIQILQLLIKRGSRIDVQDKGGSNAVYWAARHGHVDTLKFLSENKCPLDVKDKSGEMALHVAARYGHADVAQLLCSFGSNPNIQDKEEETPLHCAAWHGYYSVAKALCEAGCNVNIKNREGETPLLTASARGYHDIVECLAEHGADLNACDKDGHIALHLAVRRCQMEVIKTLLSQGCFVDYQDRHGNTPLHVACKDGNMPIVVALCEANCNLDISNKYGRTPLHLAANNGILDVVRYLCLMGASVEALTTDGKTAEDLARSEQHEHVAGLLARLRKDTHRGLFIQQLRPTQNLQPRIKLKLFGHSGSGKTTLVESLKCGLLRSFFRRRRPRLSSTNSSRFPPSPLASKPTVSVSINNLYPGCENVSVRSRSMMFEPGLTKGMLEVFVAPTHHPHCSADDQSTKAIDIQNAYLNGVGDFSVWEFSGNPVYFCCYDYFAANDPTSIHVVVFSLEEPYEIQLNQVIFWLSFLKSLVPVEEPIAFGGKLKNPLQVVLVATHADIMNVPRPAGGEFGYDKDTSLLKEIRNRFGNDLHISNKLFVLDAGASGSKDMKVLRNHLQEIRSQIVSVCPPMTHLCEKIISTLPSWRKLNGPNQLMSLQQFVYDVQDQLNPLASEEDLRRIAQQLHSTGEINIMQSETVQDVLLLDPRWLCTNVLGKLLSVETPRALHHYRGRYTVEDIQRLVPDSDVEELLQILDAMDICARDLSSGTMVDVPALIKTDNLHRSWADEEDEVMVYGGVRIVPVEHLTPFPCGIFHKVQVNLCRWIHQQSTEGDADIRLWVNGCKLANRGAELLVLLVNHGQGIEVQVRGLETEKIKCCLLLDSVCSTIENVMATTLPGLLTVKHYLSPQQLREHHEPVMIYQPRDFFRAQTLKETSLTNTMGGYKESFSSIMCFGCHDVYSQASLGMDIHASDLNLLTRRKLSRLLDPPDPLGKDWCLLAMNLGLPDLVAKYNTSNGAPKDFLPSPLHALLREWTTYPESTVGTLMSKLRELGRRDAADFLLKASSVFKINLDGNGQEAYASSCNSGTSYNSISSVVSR

BRK = target: T20, BRK (Homo sapiens, UniProt Q13882); experiment: KINOMEscan binding; settings: read-out: Percent Control
T20 construct: purchased Eurofins DiscoverX KINOMEscan

NEK4 = target: T21, NEK4 (Homo sapiens, UniProt P51957); experiment: KINOMEscan binding; settings: read-out: Percent Control
T21 construct: purchased Eurofins DiscoverX KINOMEscan

CSNK1A1L = target: T22, CSNK1A1L (Homo sapiens, UniProt Q8N752); experiment: KINOMEscan binding; settings: read-out: Percent Control
T22 construct: purchased Eurofins DiscoverX KINOMEscan
T22 sequence (Q8N752 whole entry): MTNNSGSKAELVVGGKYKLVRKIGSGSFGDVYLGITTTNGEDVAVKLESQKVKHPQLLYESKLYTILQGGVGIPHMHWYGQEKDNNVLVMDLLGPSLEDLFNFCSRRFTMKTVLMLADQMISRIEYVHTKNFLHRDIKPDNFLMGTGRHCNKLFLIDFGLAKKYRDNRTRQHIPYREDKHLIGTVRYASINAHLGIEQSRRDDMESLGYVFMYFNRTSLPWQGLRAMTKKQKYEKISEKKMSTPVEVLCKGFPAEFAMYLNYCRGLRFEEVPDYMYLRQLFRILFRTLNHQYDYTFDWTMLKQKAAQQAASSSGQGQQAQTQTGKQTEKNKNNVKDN

ULK3 = target: T23, ULK3 (Homo sapiens, UniProt Q6PHR2); experiment: KINOMEscan binding; settings: read-out: Percent Control
T23 construct: purchased Eurofins DiscoverX KINOMEscan

ACVR1B = target: T24, ACVR1B (Homo sapiens, UniProt P36896); experiment: KINOMEscan binding; settings: read-out: Percent Control
T24 construct: purchased Eurofins DiscoverX KINOMEscan

CDK2 = target: T25, CDK2 (Homo sapiens, UniProt P24941); experiment: KINOMEscan binding; settings: read-out: Percent Control
T25 construct: purchased Eurofins DiscoverX KINOMEscan

PLK4 = target: T26, PLK4 (Homo sapiens, UniProt O00444); experiment: KINOMEscan binding; settings: read-out: Percent Control
T26 construct: purchased Eurofins DiscoverX KINOMEscan

[1] = target: T27, RPS6KA4(Kin.Dom.1-N-terminal) (Homo sapiens, UniProt O75676); experiment: KINOMEscan binding; settings: read-out: Percent Control
T27 construct: RPS6KA4(Kin.Dom.1-N-terminal); purchased Eurofins DiscoverX KINOMEscan

[2] = target: T28, ABL1(F317L)-nonphosphorylated (Homo sapiens, UniProt P00519, F317L); experiment: KINOMEscan binding; settings: read-out: Percent Control
T28 construct: purchased Eurofins DiscoverX KINOMEscan

[3] = target: T29, ABL1(F317L)-phosphorylated (Homo sapiens, UniProt P00519, F317L); experiment: KINOMEscan binding; settings: read-out: Percent Control
T29 construct: purchased Eurofins DiscoverX KINOMEscan

KIT(V559D,T670I) = target: T30, KIT(V559D,T670I) (Homo sapiens, UniProt P10721, T670I/V559D); experiment: KINOMEscan binding; settings: read-out: Percent Control
T30 construct: purchased Eurofins DiscoverX KINOMEscan

CDK11 = target: T31, CDK11 (Homo sapiens, UniProt Q9BWU1); experiment: KINOMEscan binding; settings: read-out: Percent Control
T31 construct: purchased Eurofins DiscoverX KINOMEscan

EPHB3 = target: T32, EPHB3 (Homo sapiens, UniProt P54753); experiment: KINOMEscan binding; settings: read-out: Percent Control
T32 construct: purchased Eurofins DiscoverX KINOMEscan

CAMK4 = target: T33, CAMK4 (Homo sapiens, UniProt Q16566); experiment: KINOMEscan binding; settings: read-out: Percent Control
T33 construct: purchased Eurofins DiscoverX KINOMEscan

DAPK2 = target: T34, DAPK2 (Homo sapiens, UniProt Q9UIK4); experiment: KINOMEscan binding; settings: read-out: Percent Control
T34 construct: purchased Eurofins DiscoverX KINOMEscan
T34 sequence (Q9UIK4 whole entry): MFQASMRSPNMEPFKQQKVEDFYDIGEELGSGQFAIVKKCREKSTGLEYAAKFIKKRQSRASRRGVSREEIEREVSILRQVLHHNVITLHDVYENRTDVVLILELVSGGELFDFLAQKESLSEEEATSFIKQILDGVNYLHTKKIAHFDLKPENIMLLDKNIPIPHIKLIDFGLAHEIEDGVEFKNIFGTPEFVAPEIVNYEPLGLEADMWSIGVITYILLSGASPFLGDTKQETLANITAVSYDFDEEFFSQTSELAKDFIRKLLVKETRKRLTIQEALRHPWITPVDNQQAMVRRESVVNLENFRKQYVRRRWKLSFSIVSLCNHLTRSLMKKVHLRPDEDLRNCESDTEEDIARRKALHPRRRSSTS

IRAK1 = target: T35, IRAK1 (Homo sapiens, UniProt P51617); experiment: KINOMEscan binding; settings: read-out: Percent Control
T35 construct: purchased Eurofins DiscoverX KINOMEscan

p38-alpha = target: T36, p38-alpha (Homo sapiens, UniProt Q16539); experiment: KINOMEscan binding; settings: read-out: Percent Control
T36 construct: purchased Eurofins DiscoverX KINOMEscan

PIK3CA(I800L) = target: T37, PIK3CA(I800L) (Homo sapiens, UniProt P42336, I800L); experiment: KINOMEscan binding; settings: read-out: Percent Control
T37 construct: purchased Eurofins DiscoverX KINOMEscan

PKAC-alpha = target: T38, PKAC-alpha (Homo sapiens, UniProt P17612); experiment: KINOMEscan binding; settings: read-out: Percent Control
T38 construct: purchased Eurofins DiscoverX KINOMEscan

[4] = target: T39, RSK1(Kin.Dom.2-C-terminal) (Homo sapiens, UniProt Q15418); experiment: KINOMEscan binding; settings: read-out: Percent Control
T39 construct: RSK1(Kin.Dom.2-C-terminal); purchased Eurofins DiscoverX KINOMEscan

SGK2 = target: T40, SGK2 (Homo sapiens, UniProt Q9HBY8); experiment: KINOMEscan binding; settings: read-out: Percent Control
T40 construct: purchased Eurofins DiscoverX KINOMEscan

STK39 = target: T41, STK39 (Homo sapiens, UniProt Q9UEW8); experiment: KINOMEscan binding; settings: read-out: Percent Control
T41 construct: purchased Eurofins DiscoverX KINOMEscan

ROCK2 = system: ROCK2; design: method as in PMID 18832915; settings: cited from earlier work

For `CC(C)NC(=O)COc1cccc(-c2nc(Nc3ccc4[nH]ncc4c3)c3ccccc3n2)c1` [KD025, 2-(3-(4-((1H-indazol-5-yl)amino)quinazolin-2-yl)phenoxy)-N-isopropylacetamide], the remaining binding at 10 µM (FLT3(D835H)) was 22%, the “Percent Control” value (FLT3(ITD)) was 31% and the remaining binding at 10 µM (LTK) was 49%. The remaining binding at 10 µM (CDK4-cyclinD3) was 53%, the remaining binding at 10 µM (TIE2) was 55% and the remaining binding at 10 µM (DLK) was 58%. The remaining binding at 10 µM (DCAMKL3) was 64%, the remaining binding at 10 µM (MYLK) was 66% and the remaining binding at 10 µM (EPHB6) was 67%. The remaining binding at 10 µM (SIK2) was 74%, the remaining binding at 10 µM (FER) was 75% and the remaining binding at 10 µM (HPK1) was 76%. The remaining binding at 10 µM (HASPIN) was 77%, the remaining binding at 10 µM (MEK3) was 77% and the remaining binding at 10 µM (MAP3K3) was 80%. The remaining binding at 10 µM (TAOK2) was 83%, the remaining binding at 10 µM (NIK) was 84% and the remaining binding at 10 µM (PIK3CA(Q546K)) was 84%. For the same molecule, the remaining binding at 10 µM (STK35) was 84%, the remaining binding at 10 µM (DAPK1) was 85% and the remaining binding at 10 µM (BRK) was 86%. The remaining binding at 10 µM (NEK4) was 87%, the remaining binding at 10 µM (CSNK1A1L) was 89% and the remaining binding at 10 µM (ULK3) was 90%. It also gave a remaining binding at 10 µM (ACVR1B) of 91%, a remaining binding at 10 µM (CDK2) of 93% and a remaining binding at 10 µM (PLK4) of 93%. For the same molecule, the remaining binding at 10 µM [1] was 94%, the remaining binding at 10 µM [2] was 96% and the remaining binding at 10 µM [3] was 98%. The remaining binding at 10 µM (KIT(V559D,T670I)) was 98%, the remaining binding at 10 µM (CDK11) was 99% and the remaining binding at 10 µM (EPHB3) was 99%. For the same molecule, the remaining binding at 10 µM (CAMK4) was 100%, the remaining binding at 10 µM (DAPK2) was 100% and the remaining binding at 10 µM (IRAK1) was 100%. It also gave a remaining binding at 10 µM (p38-alpha) of 100%, a remaining binding at 10 µM (PIK3CA(I800L)) of 100% and a remaining binding at 10 µM (PKAC-alpha) of 100%. The remaining binding at 10 µM [4] was 100%, the remaining binding at 10 µM (SGK2) was 100% and the remaining binding at 10 µM (STK39) was 100%. For the same molecule, the IC50 (ROCK2) was […].
